Results from patent publication US20080319038A1, “PREVENTATIVE OR THERAPEUTIC AGENT FOR ACUTE RENAL FAILURE” (priority 2005, published 2008).

Tests used:
[1] = system: mice with LPS-induced inflammation; assay: Effect of Fidarestat administration on renal damage in mice with lipopolysaccharide (LPS)-induced inflammation; assay type: in vivo, CD-1 mice
Protocol: Eight-week-old male CD-1 mice were used in the experiment. The mice were divided into 3 groups of normal control group (drug and LPS non-administration group), LPS control group (drug non-administration/LPS administration group), and LPS/Fidarestat administration group (Fidarestat and LPS administration group). First, 10 mg/kg of Fidarestat (which was prepared with a solubilizing agent solution) was administered into the caudal vein of the Fidarestat administration group and the solubilizing agent solution was administered into the caudal vein of the drug non-administration group. After 5 minutes, Lipopolysaccharides (LPS: Escherichia coli; 0111: B4, Sigma) was prepared with a physiological salt solution, which was administered to the LPS administration group intraperitoneally at a concentration of 2 mg/kg and a physiological salt solution was administered to the LPS non-administration group intraperitoneally. After 24 hours, each of the groups of mice was anesthetized by ether inhalation and blood was collected from the abdominal vein using a heparinized syringe. Then, centrifugation was carried out under the following conditions: at 4 degree C., at 1,000×g, for 10 min. Plasma was then obtained. Blood urea nitrogen (BUN) and creatinine were measured using an autoanalyzer (Hitachi). In this regard, as a solubilizing agent, NMDG (N-methyl-D-glucamine) was used.

[2] = system: ischemia reperfusion mice; assay: Effect of Fidarestat administration on renal damage in ischemia reperfusion mice; assay type: in vivo, C57BL/6 mice; conditions: for BUN / CK / Creatinine: blood, 3 h ischemia, 24 h reperfusion, Average ± SEM, n = 4
Protocol: Sixteen- to twenty-week-old male C57BL/6 mice (Wild) were used in the experiment. The mice were divided into 4 groups, which were designated as sham-operation group (normal control group), ischemia operation group (ischemia reperfusion control group), ischemia operation+Fidarestat 40 mg/kg administration group (ischemia reperfusion/Fidarestat 40 mg/kg administration group), and ischemia operation+Fidarestat 150 mg/kg administration group (ischemia reperfusion/Fidarestat 150 mg/kg administration group), respectively. 40 or 150 mg/kg/day of Fidarestat was mixed in their diet and administered to the ischemia operation+Fidarestat administration groups 7 days before ischemia operation. Plantar blood flow in these mice was measured with a laser blood flow meter under isoflurane anesthesia, and then the abdomen was incised. The abdominal aorta was exposed under a stereoscopic microscope and clipping was carried out at the portion distal to the renal artery bifurcation. Further, the right common iliac artery was also clipped and the right femoral artery was finally clipped. Thereafter, the abdomen was closed. The time of ischemia onset was set to the time when the femoral artery was clipped. From the time of ischemia onset, plantar blood flow was measured with a laser blood flow meter and the ischemia was confirmed. The clipping was released in order of the right femoral artery, right common iliac artery, and abdominal aorta in 3 hours from the ischemia onset and reperfusion was performed. At the time, the reperfusion status was confirmed with the laser blood flow meter. The reperfusion time was set to the time when the clipping of the aorta was released. The reperfusion was performed for 24 hours and the general condition was observed. Thereafter, heart blood was collected from the right atrium under isoflurane anesthesia. The collected heart blood was mixed with heparin and centrifuged at 3000 g. Then, the supernatant was collected therefrom, which was frozen for preservation at −80 degrees C. to use in a serologic test for CK, BUN, creatinine, and the like.

[3] = plasma, Fidarestat 10 mg/kg caudal vein 5 min before LPS 2 mg/kg i.p., 24 hours after LPS, Average ± SEM, n = 7
[4] = Fidarestat 40 mg/kg/day in diet from 7 days before ischemia
[5] = Fidarestat 150 mg/kg/day in diet from 7 days before ischemia

## NC(=O)[C@@H]1C[C@]2(NC(=O)NC2=O)c2cc(F)ccc2O1 [Fidarestat, (2S,4S)-6-fluoro-2′,5′-dioxospiro[chroman-4,4′-imidazolidine]-2-carboxamide]
[1]; model with LPS-induced inflammation, Fidarestat 10 mg/kg i.v.
  effect on renal function impairment: effective
[1]; [3]
  BUN: 24.3 ± 2.2 mg/dL
  Creatinine: 0.067 ± 0.003 mg/dL
[2]; [4]
  BUN: 40 ± 11 mg/dL
  CK: 6978 ± 4904 IU/L
  Creatinine: 0.12 ± 0.01 mg/dL
[2]; [5]
  BUN: 31 ± 1 mg/dL
  CK: 2348 ± 530 IU/L
  Creatinine: 0.10 ± 0.01 mg/dL
[2]; ischemia reperfusion/Fidarestat 40 mg/kg and 150 mg/kg administration groups
  onset of acute renal failure: completely suppressed
